This is an account of results in patent EP0431972A2, “Macrocyclic lactones having renin inhibiting properties” (MERCK & CO. INC., priority 1989, dated 1991).

Experiment [1] deals with human plasma renin. Briefly: human plasma renin IC50 determination. It counts as biochemical. As to conditions: against human plasma renin, pH 7.4. The method, then: The following method was used for in vitro evaluation of the renin inhibitors of Formuta t: • The human plasma renin IC50 values for inhibitors of Formula I were determined at pH 7.4 following the procedure described in J. Boger, L.S. Payne, D.S. Perlow, N.S. Lohr, M. Poe, E.H. Blaine, E.H. Elm, T.W. Schorn, B.I. Lamont, T.-Y. Lin, M. Kawai, D.H. Rich and D.F. Veber, J. Med. Chem., 28, 1779 (1985).

For experiment [2], the system named is conscious sodium-deficient Rhesus monkeys. Description: intravenous evaluation of renin inhibitors in conscious sodium-deficient Rhesus monkeys (blood pressure lowering). It counts as in vivo. The note with it: i.v. bolus injection. An excerpt:
The following methods were used for in vivo evaluation of the renin inhibitors of Formua I : Intravenous evaluation of renin inhibitors in conscious sodium-deficient Rhesus monkeys : Rhesus monkeys, male and female, weighing 2.6-4.5 Kg, were surgically prepared with chronic arterial and venous catheters and vascular access ports for direct monitoring of mean arterial pressure (MAPI) and heart rate (HR). The animals were maintained on a low sodium diet (1.2 mmol Nalday) plus fruit for a week, and administered LASIX (furosemide) at 2.5 mg/Kg, intramuscularly the evening prior to the experiment The animals had been trained to sit quietly in the chairs with waterAD LIBIUM for the duration of the experiment. The inhibitors were administered by bolus injection using 0.5% acetic acid-5% dextrose in water as the vehicle (0.4 ml/Kg), and MAP and HRwere measured. Blood samples were withdrawn at different time intervals beginning at the nadir of hypotensive response. PRA was determined as described above. […] A projected ED50 dose for each inhibitorwas calculated using the following formula: ED50 (Test Inhibitor, umoles/Kg) = ED50 (SCRIP) X [IC50 (Test Inhibitor)/IC50 (SCRIP)], where the IC50 values were determined against human plasma renin. […] Percent inhibition of monkey PRA, changes in MAP and HR were calculated and plotted against time. […]

Square brackets hold non-standard residues; d marks the D form. Peptide text beside a SMILES is read from it. * marks the point of attachment. Sta = CC(C)C[C@H](N)[C@@H](O)CC(=O)O; Isovaleryl = CC(C)CC(=O)*

As a reminder, the IC50 is the concentration that inhibits the measured activity by half. Low readings indicate inhibition by little substance, high ones a need for much substance. For `CC(C)CC(=O)N[C@@H](Cc1c[nH]cn1)C(=O)N1CCC[C@H]1C(=O)N[C@@H](Cc1ccccc1)C(=O)N[C@@H](Cc1c[nH]cn1)C(=O)N[C@@H](CC(C)C)[C@@H](O)CC(=O)N[C@@H](CC(C)C)C(=O)N[C@@H](Cc1ccccc1)C(N)=O` [SCRIP, Iva-His-Pro-Phe-His-Sta-Leu-Phe-NH2] (Isovaleryl-HPFH[Sta]LF-NH2), it took 3.7 nM to reach half-maximal inhibition in experiment [1] (IC50). Also, the “i.v. dose of the standard inhibitor required to lower blood pressure by 50% of the maximal response (ED50)” value in experiment [2] is 0.039 µmol/kg.
